# Like-named read-outs stand apart in the source and are kept apart here.
# Legend:
# [1] = target: T1, human recombinant adrenergic α1D receptor (Homo sapiens, UniProt P25100); assay: Adrenergic α1D radioligand binding ([3H]Prozosin); parameters: Inhibition of ligand binding, Adren. alpha1D: concentration or dose not given beside the values; details: for Inhibition of ligand binding, Adren. alpha1D: percent inhibition of specific binding; for inhibition at 1 µM: compounds screened at 1 μM, read-out: Inhibition of ligand binding, Adren. alpha1D (percent inhibition of specific binding)
# T1 construct: expressed in transfected cells; host or cells: HEK-293 cells
# T1 sequence (P25100 1-572): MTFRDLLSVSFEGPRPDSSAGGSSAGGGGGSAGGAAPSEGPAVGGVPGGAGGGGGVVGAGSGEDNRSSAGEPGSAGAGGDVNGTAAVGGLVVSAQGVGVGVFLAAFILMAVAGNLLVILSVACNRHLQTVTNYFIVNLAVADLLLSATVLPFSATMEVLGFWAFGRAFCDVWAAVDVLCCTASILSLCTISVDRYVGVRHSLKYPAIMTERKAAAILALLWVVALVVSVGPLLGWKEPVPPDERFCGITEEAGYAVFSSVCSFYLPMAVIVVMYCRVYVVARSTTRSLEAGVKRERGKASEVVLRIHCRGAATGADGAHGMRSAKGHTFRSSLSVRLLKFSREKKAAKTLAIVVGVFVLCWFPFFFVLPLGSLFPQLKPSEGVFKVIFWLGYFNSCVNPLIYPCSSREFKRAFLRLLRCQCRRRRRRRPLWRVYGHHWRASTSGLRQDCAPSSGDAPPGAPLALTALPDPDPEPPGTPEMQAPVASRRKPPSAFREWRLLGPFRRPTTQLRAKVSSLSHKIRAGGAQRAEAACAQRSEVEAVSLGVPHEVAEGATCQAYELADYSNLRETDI
# Procedure: Compounds of invention were incubated with 0.6 nM [^3H]Prozosin for 60 minutes at 25° C. Non-specific binding was estimated in the presence of 10 μM phentolamine. Receptor proteins were filtered and washed, the filters were then counted to determine [^3H]Prozosin specifically bound. […] Biochemical assay results are presented as the percent inhibition of specific binding in Table 6.
# [2] = target: T2, human recombinant serotonin (5-Hydroxytryptamine) 5-HT2C receptor (Homo sapiens, UniProt P28335); assay: Serotonin 5-HT2C radioligand binding ([3H]Mesulergine); parameters: Inhibition of ligand binding, Ser. 5-HT2C: concentration or dose not given beside the values; details: for Inhibition of ligand binding, Ser. 5-HT2C: percent inhibition of specific binding; for inhibition at 1 µM: compounds screened at 1 μM, read-out: Inhibition of ligand binding, Ser. 5-HT2C (percent inhibition of specific binding)
# T2 construct: expressed in transfected cells; host or cells: CHO-K1 cells
# T2 sequence (P28335 33-458): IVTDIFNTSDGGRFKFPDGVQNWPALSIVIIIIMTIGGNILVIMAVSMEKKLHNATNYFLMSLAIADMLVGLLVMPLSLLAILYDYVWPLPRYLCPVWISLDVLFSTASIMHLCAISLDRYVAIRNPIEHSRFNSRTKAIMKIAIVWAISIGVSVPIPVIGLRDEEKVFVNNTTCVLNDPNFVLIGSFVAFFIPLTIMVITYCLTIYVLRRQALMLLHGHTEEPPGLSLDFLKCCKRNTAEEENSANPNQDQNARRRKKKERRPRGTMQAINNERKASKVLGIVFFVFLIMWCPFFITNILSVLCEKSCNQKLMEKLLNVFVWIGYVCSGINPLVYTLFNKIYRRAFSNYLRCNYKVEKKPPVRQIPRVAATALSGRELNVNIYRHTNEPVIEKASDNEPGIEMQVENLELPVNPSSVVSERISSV
# Procedure: Compounds of the invention were incubated with 1 nM [^3H]Mesulergine for 60 minutes at 25° C. Non-specific binding was estimated in the presence of 1 μM Mianserin. Receptor proteins were filtered and washed, the filters were then counted to determine [^3H]Mesulergine specifically bound. […] Biochemical assay results are presented as the percent inhibition of specific binding in Table 6.
# [3] = target: T3, human recombinant adrenergic α2B receptor (Homo sapiens, UniProt P18089); assay: Adrenergic α2B radioligand binding ([3H]Rauwolscine); parameters: Inhibition of ligand binding, Adren. alpha2B: concentration or dose not given beside the values; details: for Inhibition of ligand binding, Adren. alpha2B: percent inhibition of specific binding; for inhibition at 1 µM: compounds screened at 1 μM, read-out: Inhibition of ligand binding, Adren. alpha2B (percent inhibition of specific binding)
# T3 construct: expressed in transfected cells; host or cells: CHO-K1 cells
# T3 sequence (P18089 1-450): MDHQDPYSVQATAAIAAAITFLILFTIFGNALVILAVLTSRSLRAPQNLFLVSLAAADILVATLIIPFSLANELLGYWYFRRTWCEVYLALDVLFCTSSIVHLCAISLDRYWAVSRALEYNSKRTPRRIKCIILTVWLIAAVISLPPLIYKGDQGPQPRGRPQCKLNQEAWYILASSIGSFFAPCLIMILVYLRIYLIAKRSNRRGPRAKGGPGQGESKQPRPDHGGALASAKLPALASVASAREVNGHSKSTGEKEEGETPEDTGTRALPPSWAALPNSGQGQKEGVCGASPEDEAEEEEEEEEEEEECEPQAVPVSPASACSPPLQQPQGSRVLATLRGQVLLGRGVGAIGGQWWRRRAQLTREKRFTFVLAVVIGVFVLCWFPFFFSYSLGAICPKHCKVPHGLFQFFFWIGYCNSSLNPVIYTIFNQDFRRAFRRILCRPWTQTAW
# Method in brief: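 Incubation ran 60 minutes at 25 °C in modified Tris-HCl buffer (50 mM, pH 7.4, 12.5 mM MgCl2, 1 mM EDTA, 0.2% BSA) using CHO-K1-expressed human receptor.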
# [4] = target: T4, human recombinant serotonin (5-Hydroxytryptamine) 5-HT2A receptor (Homo sapiens, UniProt P28223); assay: Serotonin 5-HT2A radioligand binding ([3H]Ketanserin); details: for Inhibition of ligand binding, Ser. 5-HT2A: percent inhibition of specific binding; for inhibition at 1 µM: read-out: Inhibition of ligand binding, Ser. 5-HT2A (percent inhibition of specific binding)
# T4 construct: expressed in transfected cells; host or cells: CHO-K1 cells
# Procedure: Compounds of the invention were incubated with 0.5 nM [^3H]Ketanserin for 60 minutes at 25° C. Non-specific binding was estimated in the presence of 1 μM Mianserin. Receptor proteins were filtered and washed, the filters were then counted to determine [^3H]Ketanserin specifically bound. […] Biochemical assay results are presented as the percent inhibition of specific binding in Table 6.
# [5] = target: T5, human recombinant dopamine D2L receptor (Homo sapiens, UniProt P14416); assay: Dopamine D2L radioligand binding ([3H]Spiperone); details: for Inhibition of ligand binding, Dop. D2L: percent inhibition of specific binding; for inhibition at 1 µM: compounds screened at 1 μM, read-out: Inhibition of ligand binding, Dop. D2L (percent inhibition of specific binding)
# T5 construct: expressed in transfected cells; host or cells: CHO cells
# Procedure: Non-specific binding was estimated in the presence of 10 μM Haloperidol. Receptor proteins were filtered and washed, the filters were then counted to determine [^3H]Spiperone specifically bound. […] Biochemical assay results are presented as the percent inhibition of specific binding in Table 6.
# [6] = target: T6, human recombinant histamine H2 receptor (Homo sapiens, UniProt P25021); assay: Histamine H2 radioligand binding ([125I]Aminopotentidine)
# T6 construct: expressed in transfected cells; host or cells: CHO-K1 cells
# Method in brief: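 This radioligand binding assay measured displacement of [125I]Aminopotentidine from recombinant human histamine H2 receptors. Compounds were dissolved in 1% DMSO vehicle. Specific binding was calculated by subtracting non-specific binding, defined using 3 μM Tiotidine, and activity was reported as percentage inhibition of that specific binding.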
# [7] = percent inhibition of specific binding, screened at 1 μM, read-out: Inhibition of ligand binding, Hist. H2
# [8] = compounds screened at 1 μM, read-out: Inhibition of ligand binding, Hist. H2 (percent inhibition of specific binding)
# T4 sequence (P28223 whole entry): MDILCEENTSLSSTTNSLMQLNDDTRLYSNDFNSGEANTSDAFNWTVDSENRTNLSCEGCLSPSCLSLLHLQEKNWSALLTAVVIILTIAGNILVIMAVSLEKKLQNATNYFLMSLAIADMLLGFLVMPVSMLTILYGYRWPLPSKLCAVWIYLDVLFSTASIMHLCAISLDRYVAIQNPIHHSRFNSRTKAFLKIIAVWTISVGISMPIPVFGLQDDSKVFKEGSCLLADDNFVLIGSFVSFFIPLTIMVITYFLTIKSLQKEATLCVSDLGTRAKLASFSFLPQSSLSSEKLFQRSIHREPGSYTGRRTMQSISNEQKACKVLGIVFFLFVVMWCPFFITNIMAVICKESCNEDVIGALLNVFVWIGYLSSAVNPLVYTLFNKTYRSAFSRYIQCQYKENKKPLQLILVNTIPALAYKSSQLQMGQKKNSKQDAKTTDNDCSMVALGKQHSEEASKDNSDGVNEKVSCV
# T5 sequence (P14416 whole entry): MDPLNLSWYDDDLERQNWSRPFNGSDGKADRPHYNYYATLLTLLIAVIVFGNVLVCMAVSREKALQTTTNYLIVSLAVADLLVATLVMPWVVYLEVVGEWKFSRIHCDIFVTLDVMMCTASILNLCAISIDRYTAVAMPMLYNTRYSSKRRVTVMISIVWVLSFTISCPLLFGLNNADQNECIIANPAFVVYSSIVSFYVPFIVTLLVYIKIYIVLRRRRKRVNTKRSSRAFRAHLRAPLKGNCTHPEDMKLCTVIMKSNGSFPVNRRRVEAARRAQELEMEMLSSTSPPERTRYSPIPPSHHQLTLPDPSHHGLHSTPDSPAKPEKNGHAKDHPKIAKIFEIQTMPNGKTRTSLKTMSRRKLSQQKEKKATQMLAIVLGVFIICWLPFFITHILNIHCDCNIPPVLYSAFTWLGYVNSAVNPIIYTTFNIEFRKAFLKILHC
# T6 sequence (P25021 whole entry): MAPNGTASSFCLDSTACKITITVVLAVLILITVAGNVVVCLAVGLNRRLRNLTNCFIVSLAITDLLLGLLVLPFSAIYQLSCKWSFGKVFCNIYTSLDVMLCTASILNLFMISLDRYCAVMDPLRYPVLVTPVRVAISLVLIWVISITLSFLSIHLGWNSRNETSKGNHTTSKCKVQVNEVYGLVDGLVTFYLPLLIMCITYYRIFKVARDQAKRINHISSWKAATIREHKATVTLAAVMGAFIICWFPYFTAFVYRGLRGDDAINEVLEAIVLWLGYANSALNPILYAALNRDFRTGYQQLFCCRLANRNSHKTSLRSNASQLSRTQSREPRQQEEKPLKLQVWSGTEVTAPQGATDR
SMILES,"Inhibition of ligand binding, Adren. alpha1D [1]","Inhibition of ligand binding, Ser. 5-HT2C [2]","Inhibition of ligand binding, Adren. alpha2B [3]","Inhibition of ligand binding, Ser. 5-HT2A [4]","Inhibition of ligand binding, Dop. D2L [5]","inhibition at 1 µM [6, 7]",inhibition at 1 µM [1],inhibition at 1 µM [2],inhibition at 1 µM [3],inhibition at 1 µM [4],inhibition at 1 µM [5],"inhibition at 1 µM [6, 8]","inhibition at 0.001 µM ([4]; read-out: Inhibition of ligand binding, Ser. 5-HT2A)","inhibition at 1 µM ([6]; 1 μM compound, 0.1 nM [125I]Aminopotentidine, read-out: Histamine Binding H2, percent inhibition of specific binding)"
"CC1CCN(C(=O)CCn2c3c(c4cc(Cl)ccc42)CN(C)CC3)CC1 [Compound 325, 3-(8-chloro-1,2,3,4-tetrahydro-2-methylpyrido[4,3-b]indol-5-yl)-1-(4-methylpiperidin-1-yl)propan-1-one]",36%,50%,58%,53%,−3%,22%,–,–,–,–,–,–,–,–
"Cc1ccc2c(c1)c1c(n2CCc2ccc(OC(C)(C)C)cc2)CCN(C)C1 [Compound 335, 5-(4-tert-butoxyphenethyl)-2,3,4,5-tetrahydro-2,8-dimethyl-1H-pyrido[4,3-b]indole]",91%,72%,104%,97%,44%,77%,–,–,–,–,–,–,–,–
"Cc1ccc(CCn2c3c(c4cc(Br)ccc42)CN(C)CC3)cn1 [Compound 487, 8-bromo-2-methyl-5-(2-(6-methylpyridin-3-yl)ethyl)-2,3,4,5-tetrahydro-1H-pyrido[4,3-b]indole]",–,–,–,–,–,–,90%,84%,100%,87%,42%,80%,–,–
"CN1CCc2c(c3cc(Cl)ccc3n2CCCc2ccc(C(F)(F)F)nc2)C1 [Compound 324, 8-chloro-5-(3-(6-(trifluoromethyl)pyridin-3-yl)propyl)-2,3,4,5-tetrahydro-2-methyl-1H-pyrido[4,3-b]indole]",53%,57%,98%,86%,28%,63%,–,–,–,–,–,–,–,–
CN1CCc2c(c3cc(F)ccc3n2CCc2nc(-c3ccccc3)cs2)C1 [Compound C1-7],–,–,–,–,–,–,66%,91%,113%,96%,25%,55%,–,–
Cc1ccc2c(c1)c1c(n2CCc2ccc(CO)nc2)CCN(C)C1 [Compound 267],92%,76%,100%,73%,21%,42%,–,–,–,–,–,–,–,–
"CN1CCc2c(c3cc(Cl)ccc3n2CCC(=O)N2CCCCC2)C1 [Compound 326, 3-(8-chloro-1,2,3,4-tetrahydro-2-methylpyrido[4,3-b]indol-5-yl)-1-(piperidin-1-yl)propan-1-one]",40%,31%,52%,27%,−5%,12%,–,–,–,–,–,–,–,–
"COc1ccc(CCn2c3c(c4cc(Cl)ccc42)CN(C)CC3)cc1 [Compound 336, 8-Chloro-5-[2-(4-methoxy-phenyl)-ethyl]-2-methyl-2,3,4,5-tetrahydro-1H pyrido[4,3-b]indole]",98%,99%,103%,96%,82%,101%,–,–,–,–,–,–,–,–
COc1ccc(CCn2c3c(c4cc(C)ccc42)CN(C)CC3)cc1 [Compound 247],95%,93%,103%,–,87%,97%,–,–,–,–,–,–,22%,97%
"CN1CCc2c(c3ccncc3n2CCc2ccccn2)C1 [Compound 481, 7-aza-2-methyl-5-(2-(pyridin-2-yl)ethyl)-2,3,4,5-tetrahydro-1H-pyrido[4,3-b]indole]",–,–,–,–,–,–,3%,20%,19%,27%,16%,-17%,–,–
